Experimental findings from US20230364271A1, “METHODS AND COMPOSITIONS FOR INCREASING UPTAKE, INTERNALIZATION, AND/OR RETENTION OF SMALL MOLECULE LIGANDS” (CORNELL UNIVERSITY, priority 2020, published 2023) are described below.

The subject of data set [1] is CWR22Rv1 cells. The data set can be described thus: Retention of internalized Lu^177-labelled agent in CWR22Rv1 cells (Example 1). It counts as cell-based, human. The procedure: (§1) LNCaP or CWR22Rv1 cells were plated into 12-well plates overnight. Lu^177-J591 (0.5 μci/ml/well) or Lu^177-PSMA-617 (0.5 μci/ml/well) was then added, and the cells were incubated for 6 hours at 37° C. to allow internalization. Duplicate wells were used for each time point. After 6 hours of incubation, the cells were washed once with RPMI-10% FBS. 0.6 ml of 1% TritonX-100 was added per well for 2 wells as 0 time point, and 1.5 ml of RPMI-10% FBS was added to the remaining wells. The cells were incubated at 37° C. for 1 to 6 days. On day 1, 2, 3, 5, and 6, the medium was removed and 0.6 ml of 1% TritonX-100 was added to each well. The lysate was collected from each well and all samples were counted at day 6. Results are shown in Table 1 below (in % of time 0 counts) and FIGS. 1A-1B.

The subject of data set [2] is CWR22rv1 tumors. The data set can be described thus: Tumor uptake of PSMA-617-Lu^177 in CWR22rv1 xenografts with cold antibody (Example 4). It is filed as in vivo, BALB/c nude mice. To be noted: PSMA-617-Lu^177 300 μci IV with PBS, day 3 post-injection, average. On the procedure: CWR22rv1 cells (5×10^6 cells/200 μl matrigel/mouse) were injected into 40 BALB/c nude mice. After tumors were established and growing, all mice were injected intravenously (IV) via tail vein with PSMA-617-Lu^177 (300 μci/per mouse) on day 0. The treatment groups were as follows.
All mice were euthanized 3 days after injection of PSMA-617-Lu^177. All tumors were harvested, weighed individually, and radioactivity counted.

Data set [3] has as its system LNCaP cells. The data set can be described thus: Retention of internalized Lu^177-labelled agent in LNCaP cells (Example 1). It is filed as cell-based, human. To be noted: for efflux out of the cells after internalization: 2 human prostate cancer cell lines (LNCaP and CWR22Rv1); for cell-associated counts retained: LNCaP. The procedure: as §1

With `O=C([O-])CN1CCN(CC(=O)[O-])CCN(CC(=O)NCC2CCC(C(=O)N[C@@H](Cc3ccc4ccccc4c3)C(=O)NCCCC[C@H](NC(=O)N[C@@H](CCC(=O)O)C(=O)O)C(=O)O)CC2)CCN(CC(=O)[O-])CC1.[177Lu+3]` (stereo partly drawn) [Lu^177-PSMA-617], the cell-associated counts retained in data set [1] (CWR22Rv1, 0 time (after 6 h incubation)) is on record as 100.00 % of time 0 counts; in data set [1] (CWR22Rv1, Day 1) it was 24.37 % of time 0 counts; in data set [1] (CWR22Rv1, Day 2), 23.99 % of time 0 counts; in data set [1] (CWR22Rv1, Day 3), 10.28 % of time 0 counts; in data set [1] (CWR22Rv1, Day 5), 9.39 % of time 0 counts; in data set [1] (CWR22Rv1, Day 6), 7.64 % of time 0 counts. The cell-associated counts retained in data set [3] (0 time (after 6 h incubation)) is on record as 100.00 % of time 0 counts; in data set [3] (Day 1), 52.21 % of time 0 counts; in data set [3] (Day 2), 56.06 % of time 0 counts; in data set [3] (Day 3), 42.80 % of time 0 counts; in data set [3] (Day 5), 39.12 % of time 0 counts; in data set [3] (Day 6), 35.82 % of time 0 counts. In data set [2], the tumor radioactivity is 150 cpm/mg of tumor. Further, the results for the “efflux out of the cells after internalization” value in data set [3] (listed as PSMA 617-Lu^177) and in data set [3] (listed as small molecule ligand) were “rapidly effluxed back out of the cell soon after internalization” and “rapidly effluxed out of the cells”, respectively.
